The assay has as its system MC3T3-E1 osteoblast cells. The assay is described as follows: ECM screen: adhesion of MC3T3-E1 cells to immobilized adhesion ligands (fluorescent nuclei count). Type of assay: cell-based. Particulars: "best factors" approach. The source says:
A statistical design was developed with special consideration of the surface chemistry requirements. In particular, in this experiment the scenario shown in FIG. 9 was used, wherein the overall adhesion ligand density was kept constant from well to well and only the adhesion ligand composition was allowed to change. In other words, the concentration of a single adhesion ligand could be different from well to well, but each well has the same amount of adhesion ligand immobilized overall. This scenario is further described above. An example of such design is shown in the spreadsheet in FIG. 10. The spreadsheet serves as a computer representation of the design which is stored in a database. The top row in […] lists the 10 factors […] used in this particular screen, and their corresponding identities. In the spreadsheet shown, Factor A represents fibronectin, Factor B represents Collagen I, etc. The first column is a list of the experimental points that translate into a well in the 96-well plate, e.g., 52 wells in this case. The numbers in the spreadsheet are the factor levels. In this example, these levels are the actual volumes (in μL) of factor that are added to a particular well. In this particular design, factors get added to the wells at three volumes, e.g., 5 μL, 25 μL, or 50 μL. The total well volume in this case is 50 μL. Thus, for wells where one factor is added at 50 μL, the final well composition will comprise a single adhesion ligand covalently immobilized on the well surface. Accordingly, if 25 μL of a factor is added to a well, a second factor is added at 25 μL also, and the final well composition will comprise a mixture of two different cell adhesion ligands covalently immobilized on the well surface. When 5 μL of a factor are added, nine other factors are added at 5 μL each, as well, thus resulting in wells that comprise a mixture of all 10 cell adhesion ligands on the well surface. These experimental points containing all 10 adhesion ligands are called “mid points” and are an integral part of the statistical design in this example.
With reference now to FIG. 11, a 96-well plate layout is shown, which was translated from the particular statistical design shown in FIG. 10. In particular, the 96-well plate includes the well compositions indicated in FIG. 10, e.g., cell adhesion ligand combinations immobilized at the bottom of each well. In particular, the experimental runs in FIG. 10 correspond to rows/columns in FIG. 11, as follows: runs 1-10 in the design in FIG. 10 represent row B, columns 2-11, respectively on the array in FIG. 11; runs 11-20 represent row C, columns 2-11; runs 21-30 represent row D, columns 2-11; runs 31-40 represent row E, columns 2-11; runs 41-50 represent row F, columns 2-11; and runs 51 and 52 represent row G, columns 2 and 3, respectively. As shown by the statistical design in FIG. 10 and the corresponding 96-well plate layout in FIG. 11 it is an embodiment of the present invention that, in addition to mixtures of agents, single agents can be placed in the receptacles.
Cells were removed from cell culture flasks using trypsin-EDTA according to methods well known in the art. Cells were enumerated, spun down and resuspended in media containing no serum or, alternatively, in media containing 10% fetal calf serum. Cells were plated into the wells of a 96-well microarray according to the layout shown in FIG. 11 and described in Example 3 above. The seeding density was about 10,000 cells per well. Cells were incubated on the plates overnight at 37° C. The following day, media and any cells not adhering to the immobilized agents on the well surfaces were removed. Any adhered cells were fixed by exposure to forrnalin for at least 15 minutes. Propidium iodite was used to fluorescently label the nuclei of said fixed adhered cells. […]

Where [1] appears, read: no serum, FIG. 14, deviation from mid-point reference blend.

Regarding Collagen IV, the “effect on cell count (mixture-model analysis)” value (“effect on cell count” below) is “positive effect on cell count” (10% serum, FIG. 15) and “increase the cell count” under setting [1].
For poly-L-lysine [reference compound], in that order: “diminishes” and “marginal effect”.
On to laminin, for which the “effect on cell count” value (10% serum, FIG. 15) is on record as “positive effect on cell count” and the “effect on cell count” value under setting [1] was “increase the cell count”.

For the origin of these results see patent US20050060100A1, “Computer software and algorithms for systems biologically linked to cellular phenotype” (Becton Dickinson and Company, priority 2003, published 2005).
